Experimental findings from US9035059B2, “Nitrogen-containing condensed heterocyclic compound” (TAISHO PHARMACEUTICAL CO., LTD., priority 2011, dated 2015) are described below.

The structures appear in SMILES notation.

Chain of human MGAT2 (Q3SYC2 whole entry): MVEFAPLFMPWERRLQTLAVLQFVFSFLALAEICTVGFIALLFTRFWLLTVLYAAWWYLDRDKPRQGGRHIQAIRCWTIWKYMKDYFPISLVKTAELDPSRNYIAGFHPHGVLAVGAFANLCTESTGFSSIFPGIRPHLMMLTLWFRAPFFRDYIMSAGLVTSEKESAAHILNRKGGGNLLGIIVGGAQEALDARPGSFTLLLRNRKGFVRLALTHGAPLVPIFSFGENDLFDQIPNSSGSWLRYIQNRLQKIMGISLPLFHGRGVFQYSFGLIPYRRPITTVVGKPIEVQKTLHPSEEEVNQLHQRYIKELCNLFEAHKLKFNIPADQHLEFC

The assay deals with human MGAT2 (Homo sapiens (Human), UniProt Q3SYC2). The assay is described as follows: Test Example 1: Test of MGAT2 inhibitory action (human MGAT2 enzyme fraction from Sf9 cells, free CoA detected by CPM fluorescence). Format: biochemical. The conditions noted are these: human MGAT2 enzyme fraction expressed in Sf9 insect cells, 0.5 μg/ml, 2-monooleoyl glycerol 0.78 μM, oleoyl-CoA 5.3 μM, room temperature 20 min, read-out: Activity Value [nM] (IC50, concentration at which 50% of produced free CoA was inhibited). As to the method:
The MGAT2 inhibitory action of the inventive compound was measured by the methods described in Test Examples as shown below. The MGAT enzyme activity was measured based on the amount of an indicator, free Coenzyme A (CoA) which is generated by the reaction shown below, using a sulfhydryl reactive pigment (7-diethylamino-3-(4-maleimidophenyl)-4-methylcoumarin; hereinafter, sometimes abbreviated as CPM).
A test for MGAT2 inhibitory action of test compounds was conducted in accordance with a partially modified version of the method described in John F. Lockwood et al., Am. J. Physiol. Endocrinol. Metab., 2003, 285, E927.
Bac-to-Bac Baculovirus Expression System (Life Technologies Japan) was used to express human MGAT2 in insect cells (Sf9) (Life Technologies Japan). These cells were sonicated and centrifuged at 100,000 g×1 hr to give a precipitate. The precipitate was used as a human MGAT2 enzyme fraction in this assay.
This test was conducted using a black flat-bottom 96-well plate (Corning). A buffer solution with final concentrations of 5 mM magnesium chloride, 100 mM sucrose and 100 mM Tris-HCl (pH=7.5) was prepared and test compounds prepared in various concentrations using dimethyl sulfoxide were added thereto to give a final dimethyl sulfoxide concentration of 1%. The MGAT2 enzyme fraction was added thereto to give a final concentration of 0.5 μg/ml and phosphatidylcholine, 2-monooleoyl glycerol and oleoyl-CoA were added thereto to give final concentrations of 7.5 μM, 0.78 μM and 5.3 μM, respectively, before starting a reaction. The reaction was performed at room temperature for 20 min.
After 20 min, a CPM-containing solution was added thereto to give a final concentration of 5 μM before stopping the MGAT reaction. After 1 hr, a fluorescence detector (Infinite 200 from Tecan Japan) was used to measure the CPM fluorescence value of each well (excitation 380 nm, emission 460 nm).
As for `CC(C)(C)c1ccc(NC(=O)N2Cc3ccc(S(=O)(=O)Nc4ccc(OCCCC(F)(F)F)cc4F)cc3C2)cc1` [18-26], the IC50 worked out at 185 nM.
Consider `CC(C)(C)c1ccc(NC(=O)N2Cc3ccc(S(=O)(=O)Nc4ccc(OCCOC5CCCC5)cc4F)cc3C2)cc1` [18-29], for which the IC50 was 128 nM.
For `CC(C)(C)c1ccc(NC(=O)N2Cc3ccc(S(=O)(=O)Nc4ccc(OCCC5CC5)cc4F)cc3C2)cc1` [18-31], the IC50 stood at 266 nM.
With `CC(C)(C)c1ccc(NC(=O)N2Cc3ccc(S(=O)(=O)Nc4ccc(OCCC5CCCC5)cc4F)cc3C2)cc1` [18-32] the figure was 58 nM; with `CC(C)(C)c1ccc(NC(=O)N2Cc3ccc(S(=O)(=O)Nc4ccc(OCCCCc5ccccc5)cc4F)cc3C2)cc1` [19-2], 30 nM; with `CC(C)(C)c1ccc(NC(=O)N2Cc3ccc(S(=O)(=O)Nc4ccc(OCCCC5CCCC5)cc4F)cc3C2)cc1` [19-3], 4 nM.
Regarding `C/C=C\CCCCCOc1ccc(NS(=O)(=O)c2ccc3c(c2)CN(C(=O)Nc2ccc(C(C)(C)C)cc2)C3)c(F)c1` [19-4], the IC50 was determined as 2 nM.
With `CC(C)CCCOc1ccc(NS(=O)(=O)c2ccc3c(c2)CN(C(=O)Nc2ccc(C(C)(C)C)cc2)C3)c(F)c1` [19-7], the IC50 was determined as 99 nM.
Consider `CCCCCCCOc1ccc(NS(=O)(=O)c2ccc3c(c2)CN(C(=O)Nc2ccc(C(C)(C)C)cc2)C3)c(F)c1` [19-8], for which the IC50 came out at 28 nM.
Take `C/C=C\CCCOc1ccc(NS(=O)(=O)c2ccc3c(c2)CN(C(=O)Nc2ccc(C(C)(C)C)cc2)C3)c(F)c1` [19-11]: the IC50 stood at 128 nM.
On to `CC(C)(C)c1ccc(NC(=O)N2Cc3ccc(S(=O)(=O)Nc4ccc(OCCc5ccccn5)cc4F)cc3C2)cc1` [19-12], for which the IC50 came to 23 nM.
`O=S(=O)(Nc1ccc(CCCC2CCCC2)cc1F)c1ccc2c(c1)CCN(CCc1ccc(OC(F)(F)F)cc1)C2` [22-2]: the IC50 turned out to be 256 nM.
For `CC(c1ccc(C(C)(C)C)nc1)N1CCc2cc(S(=O)(=O)Nc3ccc(CCCC4CCCC4)cc3F)ccc2C1` (stereo not drawn) [23-1, 2-[1-(6-tert-Butylpyridin-3-yl)ethyl]-N-[4-(3-cyclopentylpropyl)-2-fluorophenyl]-1,2,3,4-tetrahydroisoquinoline-6-sulfonamide] the value was 13 nM; for `CC(c1ccc(C(C)(C)C)nc1)N1CCc2cc(S(=O)(=O)Nc3ccc(OCCCCCc4ccccc4)cc3F)ccc2C1` (stereo not drawn) [23-2], 14 nM.
Regarding `O=C(OC1CCCCC1)N1CCc2cc(S(=O)(=O)Nc3ccc(CCCC4CCCC4)cc3F)ccc2C1` [26-1, Cyclohexyl 6-{[4-(3-cyclopentylpropyl)-2-fluorophenyl]sulfamoyl}-3,4-dihydroisoquinoline-2(1H)-carboxylate], the IC50 was 217 nM.
For `CC(C)(C)c1ccc(C(=O)N2CCc3cc(S(=O)(=O)Nc4ccc(CCCC5CCCC5)cc4F)ccc3C2)cc1` [Working Example 1-4], the IC50 is 211 nM.
Regarding `O=C(c1ccc(C(F)(F)F)nc1)N1CCc2cc(S(=O)(=O)Nc3ccc(CCCC4CCCC4)cc3F)ccc2C1` [Working Example 1-5], the IC50 stood at 154 nM.
With `CC(C)(C)[C@H]1CC[C@H](C(=O)N2CCc3cc(S(=O)(=O)Nc4ccc(CCCC5CCCC5)cc4F)ccc3C2)CC1` [Working Example 1-6], the IC50 stood at 88 nM.
With `CC(C)(C)[C@H]1CC[C@@H](C(=O)N2CCc3cc(S(=O)(=O)Nc4ccc(CCCC5CCCC5)cc4F)ccc3C2)CC1` [Working Example 1-7] the figure was 292 nM; with `CC(C)(C)c1ccc(CC(=O)N2CCc3cc(S(=O)(=O)Nc4ccc(OCCC5CCCCC5)cc4F)ccc3C2)cc1` [Working Example 4-1, 2-[(4-tert-Butylphenyl)acetyl]-N-[4-(2-cyclohexylethoxy)-2-fluorophenyl]-1,2,3,4-tetrahydroisoquinoline-6-sulfonamide], 149 nM; with `CC(C)(C)c1ccc(CCN2CCc3cc(S(=O)(=O)Nc4ccc(OCCC5CCCCC5)cc4F)ccc3C2)cc1` [Working Example 5-1, 2-[2-(4-tert-Butylphenyl)ethyl]-N-[4-(2-cyclohexylethoxy)-2-fluorophenyl]-1,2,3,4-tetrahydroisoquinoline-6-sulfonamide], 76 nM.
Take `CC(C)(C)c1ccc(CCN2CCc3cc(S(=O)(=O)Nc4ccc(CCCC5CCCC5)cc4F)ccc3C2)cc1` [Working Example 6-17]: the IC50 is 28 nM.
Consider `CCCCCCCc1ccc(NS(=O)(=O)c2ccc3c(c2)CCN(CCc2ccc(C(C)(C)C)cc2)C3)c(F)c1` [Working Example 6-18], for which the IC50 amounted to 35 nM.
Consider `CC(C)(C)c1ccc(CCN2CCc3cc(S(=O)(=O)Nc4ccc(CCCC5CCCCC5)cc4F)ccc3C2)cc1` [Working Example 6-19], for which the IC50 came out at 62 nM.
With `CC(C)(C)c1ccc(CN2CCc3cc(S(=O)(=O)Nc4ccc(OCCCc5ccccc5)cc4F)ccc3C2)cn1` [Working Example 6-26], the IC50 is 218 nM.
Consider `CCCCCCOc1ccc(NS(=O)(=O)c2ccc3c(c2)CCN(Cc2ccc(C(C)(C)C)nc2)C3)c(F)c1` [Working Example 6-27], for which the IC50 came out at 135 nM.
`CC(C)(C)c1ccc(CCN2CCc3cc(S(=O)(=O)Nc4ccc(CCCCCc5ccccc5)cc4F)ccc3C2)cc1` [Working Example 6-28]: the IC50 was 53 nM.
As for `CCCCCCOc1ccc(NS(=O)(=O)c2ccc3c(c2)CCN(CCc2ccc(C(C)(C)CO)cc2)C3)c(F)c1` [Working Example 6-30], the IC50 was 214 nM.
For `CC(C)(C)c1ccc(CN2CCc3cc(S(=O)(=O)Nc4ccc(CCCC5CCCC5)cc4F)ccc3C2)cn1` [Working Example 6-31] the value was 31 nM; for `CCCCCCCc1ccc(NS(=O)(=O)c2ccc3c(c2)CCN(Cc2ccc(C(C)(C)C)nc2)C3)c(F)c1` [Working Example 6-32], 31 nM; for `CCCCCCCCOc1ccc(NS(=O)(=O)c2ccc3c(c2)CCN(Cc2ccc(C(C)(C)C)nc2)C3)c(F)c1` [Working Example 6-33], 26 nM.
In the case of `CC(C)(C)c1ccc(CN2CCc3cc(S(=O)(=O)Nc4ccc(OCCCCCc5ccccc5)cc4F)ccc3C2)cn1` [Working Example 6-34], the IC50 stood at 36 nM.
Take `CC(C)(C)c1ccc(CN2CCc3cc(S(=O)(=O)Nc4ccc(OCCCC5CCCCC5)cc4F)ccc3C2)cn1` [Working Example 6-35]: the IC50 is 65 nM.
With `CCCCCCCCN1CCc2cc(S(=O)(=O)Nc3ccc(OCCCCCC)cc3F)ccc2C1` [Working Example 6-36] the figure was 253 nM; with `CCCCCCOc1ccc(NS(=O)(=O)c2ccc3c(c2)CCN(CCc2ccc(C(C)(C)C)nc2)C3)c(F)c1` [Working Example 6-44], 258 nM.
For `CC(C)(C)c1ccc(CCN2CCc3cc(S(=O)(=O)Nc4ccc(OCCCc5ccccc5)cc4F)ccc3C2)cn1` [Working Example 6-45] the value was 286 nM.
Turning to `CC(C)(C)c1ncc(CN2CCc3cc(S(=O)(=O)Nc4ccc(CCCC5CCCC5)cc4F)ccc3C2)s1` [Working Example 6-48], the IC50 came to 49 nM.
Consider `O=S(=O)(Nc1ccc(CCCC2CCCC2)cc1F)c1ccc2c(c1)CCN(Cc1ccc(C(F)(F)F)nc1)C2` [Working Example 6-54], for which the IC50 is 180 nM.
As for `CC(C)(C)c1ccc(CCN2CCc3cc(S(=O)(=O)Nc4ccc(CCCC5CCCC5)cc4F)ccc3C2)cn1` [Working Example 6-63], the IC50 worked out at 62 nM.
For `CC(C)(C)c1cnc(CCN2CCc3cc(S(=O)(=O)Nc4ccc(CCCC5CCCC5)cc4F)ccc3C2)nc1` [Working Example 6-64], the IC50 worked out at 40 nM.
With `Cc1nc(-c2ccc(C(F)(F)F)cc2)sc1CN1CCc2cc(S(=O)(=O)Nc3ccc(CCCC4CCCC4)cc3F)ccc2C1` [Working Example 6-65], the IC50 turned out to be 51 nM.
For the compound `CC(C)(C)c1ccc(CN2CCc3cc(S(=O)(=O)Nc4ccc(OCCC5CCOCC5)cc4F)ccc3C2)cc1` [Working Example 6-66], the IC50 stood at 203 nM.
For the compound `CC(C)(C)c1ccc(CCN2CCc3cc(S(=O)(=O)Nc4ccc(CCCC5CCOCC5)cc4F)ccc3C2)cc1` [Working Example 6-75], the IC50 stood at 24 nM.
`O=S(=O)(Nc1ccc(CCCC2CCCC2)cc1F)c1ccc2c(c1)CCN(Cc1cnc(C(F)(F)F)nc1)C2` [Working Example 6-78]: the IC50 was 228 nM.
Take `CCCCCCOc1ccc(NS(=O)(=O)c2ccc3c(c2)CCN(Cc2cnc(C(C)(C)C)s2)C3)c(F)c1` [Working Example 7-19]: the IC50 was determined as 195 nM.
Take `CCCCCCCc1ccc(NS(=O)(=O)c2ccc3c(c2)CCN(Cc2ccc(C(F)(F)F)nc2)C3)c(F)c1` [Working Example 7-29]: the IC50 was determined as 134 nM.
Consider `CCCCCCCc1ccc(NS(=O)(=O)c2ccc3c(c2)CCN(Cc2cnc(C(C)(C)C)s2)C3)c(F)c1` [Working Example 7-32], for which the IC50 worked out at 42 nM.
For `CCCCCCCc1ccc(NS(=O)(=O)c2ccc3c(c2)CCN(CCCCCC)C3)c(F)c1` [Working Example 7-35] the value was 220 nM.
